Experiments:
[1] = tested on: IL-1Ra; assay: IL-1Ra time profile / mRNA level in monocytes, RT-qPCR; format: cell-based, human; settings: 50 µg/mL, with and without LPS, without LPS detected only after 18 h
Description: Figure 2 Cytokine level of IL‐1Ra in supernatants of primary human monocytes of healthy donors treated with peptide dendrimers, evaluated by ELISA (bars, left vertical axis) and mRNA levels (▴, right vertical axis). […] For mRNA levels evaluation, 2×10^6 cells 3 mL^−1 in 6 well plates were incubated with 50 μg mL^−1 dendrimer or GA for 18 h.
To assess the activity requirements for 1 and 4, we performed a structure–activity relationship (SAR) study on the level of induced IL‐1Ra release measured by immunoassay, which we verified in selected cases at the mRNA level by RT‐qPCR (Figure 2).
For closer characterization, we selected dendrimer 1 due to its smaller size and the presence of a cysteine residue that could be used for labelling. […] Furthermore, dendrimer 1 induced the release of IL‐1Ra both with and without LPS activation, but in the latter case the effect was detected only after 18 h incubation (Figure S5e/f).
Enriched monocytes after Percoll centrifugation (4×10^6 cells/3 mL well; 6-well plates) were preincubated for 1 h with or without compounds in RPMI-1640 medium supplemented with 10% heat-inactivated FBS, 50 μg/mL streptomycin, 50 U/mL penicillin, 2 mM L-glutamine, and then incubated for the indicated duration. After the incubation cells were collected, total RNA was extracted, reverse transcribed and analyzed by SYBR Green Master Mix. […]

[2] = tested on: PBMC; format: cell-based, human; settings: 100-12.5 µg/mL, 24 h, AlamarBlue further 12 h, fluorescence, normalized to untreated, n = 3
Text: To assess the activity requirements for 1 and 4, we performed a structure–activity relationship (SAR) study on the level of induced IL‐1Ra release measured by immunoassay, which we verified in selected cases at the mRNA level by RT‐qPCR (Figure 2). […]
and centrifuged at the same conditions. PBMC collected from the interface were washed 3 times with supplemented RPMI.
Monocytes purification using magnetic beads labelling Isolation KIT II
Monocytes were purified from whole PBMC by negative selection, all procedures were carried out according to manufacturer protocol. Briefly, the non-monocytes were labeled with a cocktail of biotin-conjugated monoclonal antibodies as a primary labeling reagent. Then as a secondary labeling reagent were used anti-biotin microbeads. The mixture was run through the MACS column (MACS, Miltenyi Biotech) in the magnetic field of a MACS Separator (MACS, Miltenyi Biotech). […]
supplemented with 10% heat-inactivated FBS, 50 μg/mL streptomycin, 50 U/mL penicillin, 2 mM L-glutamine, and 5 μg/mL. […] Then, plates were measured on a Tecan Infinite M1000 Pro plate reader at λex= 560 nm and λem= 590 nm and value normalized to the […]
Figure S1. […] After incubation 50 µl of 50% AlamarBlue was added in supplemented medium for additional 12 h, then fluorescence was measured according to manufacture protocol. […]

Substance: (KA)8(KAK)4(KEKA)2KAKEAYCA-NH2 [compound 1, G3 peptide dendrimer]
- release of IL-1Ra, time profile [1]: induced
- viability of PBMC / cellular toxicity [2]: did not show measurable cellular toxicity

Reference: article PMC9298260, “An Immunomodulatory Peptide Dendrimer Inspired from Glatiramer Acetate” (Angewandte Chemie (International Ed. in English), 2021)
